# Laboratory results: patent US20250059187A1, “COVALENTLY BINDING INHIBITORS OF G12S, G12D AND/OR G12E MUTANTS OF K-RAS GTPASE” (The Regents of the University of California, priority 2021, published 2025)
# Tests used:
# [1] = tested on: A549 cells (homozygous KRAS p.G12S mutation); test: Immunoblot and Raf-RBD pulldown in A549 cells; type: cell-based; settings: 10 μM, 2 h
# Procedure: Cells were passed for at least two generations after cryorecovery before they were used for assays. All cell lines were tested mycoplasma negative using MycoAlert™ Mycoplasma Detection Kit (Lonza). When indicated, cells were treated with drugs at 40-60% confluency at a final DMSO concentration of 1%. At the end of treatment period, cells were placed on ice. Unless otherwise indicated, adherent cells were washed once with ice-cold PBS (1 mL), scraped with a spatula, and pelleted by centrifugation (500×g, 5 min). Suspension cells were pelleted by centrifugation (500×g, 5 min), washed with 1 mL ice-cold PBS, and pelleted again. Cells were lysed in RIPA buffer supplemented with protease and phosphatase inhibitors (cOmplete and phosSTOP, Roche) on ice for 10 min. For RBD pulldown experiments, cells were lysed in Co-IP Lysis Buffer in lieu of RIPA buffer. Lysates were clarified by high-speed centrifugation (19,000×g, 10 min). Concentrations of lysates were determined with protein BCA assay (Thermo Fisher) and adjusted to 2 mg/mL with additional RIPA buffer (or Co-IP Lysis Buffer). Samples were mixed with 5×SDS Loading Dye and heated at 95° C. for 5 min.
# Ras·GTP pulldown was performed with GST-RBD agarose beads (Cytoskeleton, 10 μL, 30 μg loaded GST-RBD). 50 μL lysate (2 mg/mL) was mixed with 10 μL beads, and the suspension was incubated at 4° C. for 1 h with constant end-to-end rotation. The beads were settled by centrifugation (500×g, 5 min) and the supernatant was carefully removed. The beads were washed with 2×500 μL ice-cold Co-IP wash buffer. Bound protein was eluted with 10 μL 2×SDS Loading Buffer.
# Membranes were blocked in 5% BSA-TBST for 1 h at 23° C. […] After washing the membrane three times with TBST (5 min each wash), secondary antibodies (goat anti-rabbit IgG-IRDye 800 and goat anti-mouse IgG-IRDye 680, Li-COR) were added as solutions in 5% skim milk-TBST at the dilutions recommended by the manufacturer. Secondary antibody binding was allowed to proceed for 1 h at 23° C. The membrane was washed three times with TBST (5 min each wash) and imaged on a Li-COR Odyssey fluorescence imager.
# K-Ras(G12S) = K-Ras(G12S) (Homo sapiens, UniProt P01116, G12S); test: Covalent modification of recombinant K-Ras(G12S) by whole-protein mass spectrometry; type: binding; parameters: human K-Ras (G12S, aa 1-169); 6xHis tag + TEV cleavage site (N, cleaved yes); made in house; host or cells: E. coli BL21(DE3); settings: 23° C.; for covalent reaction with K-Ras(G12S)·GDP: 10 μM compound; for % covalent modification of K-Ras G12S: 24-h incubation, 100 μM compound, pH 7.5
# Procedure: (§1) Test compounds were prepared as 100× stock solutions in DMSO. K-Ras proteins were diluted with SEC Buffer (20 mM HEPES 7.5, 150 mM NaCl, 1 mM MgCl2) to 400 nM or 1 μM. In a typical reaction, 0.5 μL 100× compound stock was mixed with 50 μL diluted K-Ras protein, and the resulting mixture was incubated for the desired amount of time. The extent of modification was assessed by electrospray mass spectrometry using a Waters Xevo G2-XS system equipped with an Acquity UPLC BEH C4 1.7 μm column. […] For kinetic measurements, a 2× compound solution was first prepared in SEC Buffer, which was then mixed with 400 nM K-Ras(G12S) protein at 1:1 (v/v) ratio. Injection time stamps were used to calculate elapsed time.
# as §1, with “K-Ras(G12D)” for “K-Ras(G12S)”
# wild type K-Ras [2] = biological target: T1, wild type K-Ras (Homo sapiens, UniProt P01116); test: Covalent modification of recombinant wild-type K-Ras by whole-protein mass spectrometry; type: binding; settings: 24-h incubation, 100 μM compound, 23° C., pH 7.5
# T1 construct: human K-Ras (wildtype, aa 1-169); 6xHis tag + TEV cleavage site (N, cleaved yes); made in house; host or cells: E. coli BL21(DE3)
# Procedure: (§2) Test compounds were prepared as 100× stock solutions in DMSO. K-Ras proteins were diluted with SEC Buffer (20 mM HEPES 7.5, 150 mM NaCl, 1 mM MgCl2) to 400 nM or 1 μM. In a typical reaction, 0.5 μL 100× compound stock was mixed with 50 μL diluted K-Ras protein, and the resulting mixture was incubated for the desired amount of time. The extent of modification was assessed by electrospray mass spectrometry using a Waters Xevo G2-XS system equipped with an Acquity UPLC BEH C4 1.7 μm column. The mobile phase was a linear gradient of 5-95% acetonitrile/water+0.05% formic acid. For kinetic measurements, a 2× compound solution was first prepared in SEC Buffer, which was then mixed with 400 nM K-Ras(G12S) protein at 1:1 (v/v) ratio. Injection time stamps were used to calculate elapsed time.
# as §2, with “K-Ras(G12D)” for “K-Ras(G12S)”
# wild type K-Ras [3] = biological target: T1, wild type K-Ras; test: Covalent modification of test protein after incubation with compound; type: binding; settings: 24-h incubation with 100 μM compound at 23° C. at pH 7.5
# K-Ras G12D [4] = biological target: T2, K-Ras G12D (Homo sapiens, UniProt P01116, G12D); test: as above; type: binding; settings: 24-h incubation with 100 μM compound at 23° C. at pH 7.5
# T2 construct: human K-Ras (G12D, aa 1-169); 6xHis tag + TEV cleavage site (N, cleaved yes); made in house; host or cells: E. coli BL21(DE3)
# K-Ras G12E = biological target: T3, K-Ras G12E (Homo sapiens, UniProt P01116, G12E); test: as above; type: binding; settings: 24-h incubation with 100 μM compound at 23° C. at pH 7.5
# T3 construct: human K-Ras (G12E, aa 1-169); 6xHis tag + TEV cleavage site (N, cleaved yes); made in house; host or cells: E. coli BL21(DE3)
# K-Ras G12D [5] = biological target: T2, K-Ras G12D; test: Covalent modification of recombinant K-Ras(G12D) by whole-protein mass spectrometry; type: binding
# Procedure: as §2, with “K-Ras(G12D)” for “K-Ras(G12S)”
# [6] = Stability of substituted β-lactones in PBS 7.4 at 23° C.; type: physicochemical; settings: PBS, pH 7.4, read-out: half-life (hydrolysis) (converted)
# K-Ras G12D [7] = biological target: T2, K-Ras G12D; test: Differential scanning fluorimetry of K-Ras(G12D) and its covalent adducts; type: binding
# Procedure: The protein of interest was diluted with SEC Buffer [20 mM HEPES 7.5, 150 mM NaCl, 1 mM MgCl2] to 8 μM. This solution was dispensed into wells of a white 96-well PCR plate in triplicate (25 μL/well). Fluorescence was measured at 0.5-° C. temperature intervals every 30 s from 25° C. to 95° C. on a Bio-Rad CFX96 qPCR system using the FRET setting. Each data set was normalized to the highest fluorescence and the normalized fluorescence reading was plotted against temperature in GraphPad Prism 8.0. Tm values were determined as the temperature(s) corresponding to the maximum(ma) of the first derivative of the curve.
covalent reaction with K-Ras(G12S)·GDP (K-Ras(G12S)),% covalent modification of wild type K-Ras (wild type K-Ras [2]) [%],% covalent modification of wild type K-Ras (wild type K-Ras [3]) [%],% covalent modification of K-Ras G12D (K-Ras G12D [4]) [%],% covalent modification of K-Ras G12E (K-Ras G12E) [%],% covalent modification of K-Ras G12S (K-Ras(G12S)) [%],thermal stabilization of K-Ras(G12D)·GDP (K-Ras G12D [7]; GDP state),thermal stabilization of K-Ras(G12D)·GppNHp (K-Ras G12D [7]; GppNHp state),SMILES,"effects on phospho-Akt, phospho-Erk and Ras·GTP levels [1]",reactivity with K-Ras(G12D)·GDP (K-Ras G12D [5]),half-life [6] [h]
enhanced reaction,,,,,,,,CN1CCC[C@H]1COc1nc2c(c(N3CC[C@H]4C(=O)O[C@H]4C3)n1)CCN(c1cccc3cccc(Cl)c13)C2 [3′],neither adagrasib nor 3′ had any observable effects on these markers,,
enhanced reaction,0,0,0,0,100,,,O=C1O[C@H]2CN(c3nc(OCC45CCCN4CCC5)nc4c3CCN(c3cccc5cccc(Cl)c35)C4)CC[C@@H]12 [4′],decreased the level of Ras·GTP,,
,,,,,,,,O=C1C[C@H](C(=O)N2[C@@H]3CC[C@H]2CN(c2nc(OCC45CCCN4CCC5)nc4c(F)c(-c5cccc6cccc(Cl)c56)ncc24)C3)O1 [Compound 2],,the R enantiomer was more reactive toward K-Ras(G12D)·GDP,1.7
,,,,,,,,C[C@@H]1C(=O)O[C@H]1C(=O)N1[C@@H]2CC[C@H]1CN(c1nc(OCC34CCCN3CCC4)nc3c(F)c(-c4cccc5cccc(Cl)c45)ncc13)C2 [Compound 3],,,2.5
,0,0,0,0,0,,,CN1CCC[C@@H]1COc1nc2c(c(N3CCC4(CC3)CN(S(=O)(=O)O)C4=O)n1)CCN(c1cccc3cccc(Cl)c13)C2 [Compound 12-087],,,
,73.7,73.7,75.7,72.6,72.1,,,CN1CCC[C@@H]1COc1nc2c(c(N3CCC4(CC3)COC4=O)n1)CCN(c1cccc3cccc(Cl)c13)C2 [Compound 13-005],,,
,0,0,0,0,0,,,CN1CCC[C@@H]1COc1nc2c(c(N3CCC4(CC3)CC(=O)O4)n1)CCN(c1cccc3cccc(Cl)c13)C2 [Compound 13-006],,,
,85.8,85.8,87.8,75.1,92.8,,,O=C1OCC12CCN(c1nc(OCC34CCCN3CCC4)nc3c1CCN(c1cccc4cccc(Cl)c14)C3)CC2 [Compound 13-018],,,
,0,0,0,0,42.5,,,O=C1OCC12CCN(c1nc(OCC34CCCN3CCC4)nc3c(F)c(-c4cccc5cccc(Cl)c45)ncc13)CC2 [Compound 13-037],,,
,0,0,100,38.0,100,stabilized K-Ras(G12D)·GDP,stabilized K-Ras(G12D)·GppNHp,N#CC[C@H]1CN(c2nc(OCC34CCCN3CCC4)nc3c(F)c(-c4cccc5cccc(Cl)c45)ncc23)CCN1C(=O)C1CC(=O)O1 (stereo partly shown) [Compound 14-005],,,

SMILES,covalent reaction with K-Ras(G12S)·GDP (K-Ras(G12S)),% covalent modification of wild type K-Ras (wild type K-Ras [2]) [%],% covalent modification of wild type K-Ras (wild type K-Ras [3]) [%],% covalent modification of K-Ras G12D (K-Ras G12D [4]) [%],% covalent modification of K-Ras G12E (K-Ras G12E) [%],% covalent modification of K-Ras G12S (K-Ras(G12S)) [%],thermal stabilization of K-Ras(G12D)·GDP (K-Ras G12D [7]; GDP state),thermal stabilization of K-Ras(G12D)·GppNHp (K-Ras G12D [7]; GppNHp state),"effects on phospho-Akt, phospho-Erk and Ras·GTP levels [1]",reactivity with K-Ras(G12D)·GDP (K-Ras G12D [5]),half-life [6] [h]
O=C1CC(C(=O)N2[C@@H]3CC[C@H]2CN(c2nc(OCC45CCCN4CCC5)nc4c(F)c(-c5cccc6cccc(Cl)c56)ncc24)C3)O1 (stereo partly shown) [Compound 14-036],,22.0,22.0,100,42.0,42.0,,,,,
